# Source: ChEMBL document CHEMBL1201862, “PubChem BioAssay data set” (2004)
#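 96-well plates; 48 h exposure; 5 concentrations. Endpoints by linear interpolation between flanking doses. Not reached: highest tested concentration assigned. GI50 is the concentration that inhibits growth by half.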 Calls of active or inactive are those of the source. Cut-off read from the data, not from the text of the source: active = GI50 up to about 1.1 µM and inactive = higher.
# Columns and labels:
# Test in all cases: NCI tumour cell line growth inhibition, 48 h
# [1] = tested on: BT-549
# [2] = tested on: RXF 631
# [3] = tested on: LXFL 529
# [4] = tested on: DMS-273
# [5] = tested on: DLD-1
# [6] = tested on: SNB-78
# [7] = tested on: XF498
# [8] = tested on: M19-MEL
# [9] = tested on: HOP-18
Structure (SMILES),GI50 [1],GI50 [2],GI50 [3],GI50 [4],GI50 [5],GI50 [6],GI50 [7],GI50 [8],GI50 [9]
Cc1nc(C)c(N2CCN(CN)CC2)c(O)n1,> 100 µM (inactive),–,–,–,–,–,–,–,–
O=C(c1ccccc1)c1c(C(=O)c2ccccc2)c(-c2ccccc2)c2c(-c3ccccc3)sc(-c3ccccc3)c2c1-c1ccccc1,–,> 100 µM (inactive),> 100 µM (inactive),> 100 µM (inactive),> 100 µM (inactive),> 100 µM (inactive),> 100 µM (inactive),> 100 µM (inactive),–
CCOC(=O)/C=C(/C(=O)OCC)n1cc(C)c(=O)n(Cc2cnnn2COCCOC(C)=O)c1=O,17.5 µM (inactive),–,–,–,–,–,–,–,–
Cc1cccc2cc3c(ccc4ccccc43)c[n+]12,7.08 µM (inactive),–,–,–,–,–,–,–,–
CC1(C)OCC([C@H]2O[C@@H](CC(=S)NCCCCCCCCCCCCNC(=S)C[C@H]3O[C@@H](C4COC(C)(C)O4)[C@H]4OC(C)(C)O[C@H]43)[C@H]3OC(C)(C)O[C@H]32)O1 (stereo partly specified),35 µM (inactive),–,–,–,–,–,–,–,–
O=CN/C=C\c1cc(O)ccc1O,–,–,10.8 µM (inactive),7.11 µM (inactive),14.6 µM (inactive),70 µM (inactive),15.4 µM (inactive),11.8 µM (inactive),16.8 µM (inactive)
N#CC12Cc3cc4c(cc3-c3cccc(c31)CCN2C(=O)c1ccccc1)OCO4 (stereo unspecified),–,–,> 100 µM (inactive),> 100 µM (inactive),> 100 µM (inactive),51.6 µM (inactive),24.2 µM (inactive),> 100 µM (inactive),> 100 µM (inactive)
Cc1cccc(NC2=NC(=O)C(CC(=O)Nc3ccccc3Cl)S2)c1 (stereo unspecified),–,> 100 µM (inactive),> 100 µM (inactive),> 100 µM (inactive),> 100 µM (inactive),> 100 µM (inactive),95.1 µM (inactive),> 100 µM (inactive),–
CN(C)/C=C/C=C(/C=N/S(=O)(=O)C(F)(F)F)C1C=CN(S(=O)(=O)C(F)(F)F)C=C1,26.2 µM (inactive),–,–,–,–,–,–,–,–
CCOC(=O)/C=C/[C@H](O)[C@@H](O)/C=C/C(=O)OCC,35.3 µM (inactive),–,–,–,–,–,–,–,–
COc1ccc(N2C(=O)C3c4[nH]c5ccccc5c4C4CC(C)CC(C)C4C3C2=O)cc1 (stereo unspecified),–,–,> 100 µM (inactive),> 100 µM (inactive),> 100 µM (inactive),> 100 µM (inactive),> 100 µM (inactive),> 100 µM (inactive),> 100 µM (inactive)
Cn1ccnc1SC(F)(F)c1nc2ccccc2o1,46.5 µM (inactive),–,–,–,–,–,–,–,–
O=C1CSC(C(/N=N/c2ccccc2)=C2Nc3ccccc3N2)=N1,–,–,34 µM (inactive),20.1 µM (inactive),64.3 µM (inactive),46.8 µM (inactive),27.9 µM (inactive),36.7 µM (inactive),–
Cc1nc2c(nc1C)-c1c(c3c(n1Cc1ccccc1)C(=O)CCC3)C(=O)C2=O,2.86 µM (inactive),–,–,–,–,–,–,–,–
COc1ccc(-c2nc3ccccc3s2)cc1OC,15.4 µM (inactive),–,–,–,–,–,–,–,–
Cc1ccc(C(=O)Nc2ccc(CP(=O)(O)O)cc2)cc1NC(=O)c1cccc(NC(=O)Nc2cccc(C(=O)Nc3cc(C(=O)Nc4ccc(CP(=O)(O)O)cc4)ccc3C)c2)c1,> 100 µM (inactive),–,–,–,–,–,–,–,–
CC1[C@@]2(CCC(C)(C)O2)O[C@@H]2C=C3C4CCC5Cc6nc7c(nc6C[C@@]5(C)C4C[C@H](O)[C@@]3(C)[C@]12O)CC1CCC2C3=C[C@H]4O[C@@]5(O[C@@](C)(CO)C[C@@H]5O)C(C)[C@@]4(O)[C@]3(C)[C@@H](O)CC2[C@]1(C)C7 (stereo partly specified),–,0.0198 µM (active),0.0254 µM (active),0.0123 µM (active),0.753 µM (active),0.043 µM (active),0.322 µM (active),0.991 µM (active),–
C=C1C(OC2O[C@@H]3O[C@@]4(C)CC[C@H]5[C@H](C)CC[C@@H](C2=C)[C@@]35O4)O[C@@H]2O[C@@]3(C)CC[C@H]4[C@H](C)CC[C@@H]1[C@@]24O3 (stereo partly specified),> 50 µM (inactive),–,–,–,–,–,–,–,–
O=S1(=O)C[C@H](O)[C@H](O)CS1,–,–,> 100 µM (inactive),> 100 µM (inactive),> 100 µM (inactive),> 100 µM (inactive),> 100 µM (inactive),> 100 µM (inactive),> 100 µM (inactive)
O=C(O)CNc1ccc(C(=O)O)cc1,> 100 µM (inactive),–,–,–,–,–,–,–,–
BrC(Br)([P+](c1ccccc1)(c1ccccc1)c1ccccc1)[P+](c1ccccc1)(c1ccccc1)c1ccccc1,–,–,15.2 µM (inactive),14.6 µM (inactive),15.9 µM (inactive),19.7 µM (inactive),–,13.3 µM (inactive),> 100 µM (inactive)
COc1nc(C#CC2(O)CCCCC2)nc(OC)n1,14.5 µM (inactive),–,–,–,–,–,–,–,–
O=C1Nc2ccc([N+](=O)[O-])cc2/C1=N/NC(=S)Nc1ccccc1,3.88 µM (inactive),–,–,–,–,–,–,–,–
OCC1CCC(n2cnc3c(O)ncnc32)O1 (stereo unspecified),> 1000 µM (inactive),–,–,> 100 µM (inactive),> 100 µM (inactive),–,–,> 100 µM (inactive),> 100 µM (inactive)
CC(C)C1=Cc2ccc3c(c2C(=O)C1=O)CCCC3(C)C [MILTIRONE],–,–,1.86 µM (inactive),4.34 µM (inactive),2.15 µM (inactive),3.85 µM (inactive),–,2.56 µM (inactive),2.58 µM (inactive)
